Results as given in patent US20240158446A1, “CYCLIC COMPOUND HAVING SELECTIVE INHIBITORY ACTION ON KRAS OVER HRAS AND NRAS” (CHUGAI SEIYAKU KABUSHIKI KAISHA, priority 2021, published 2024).

What was measured:
[1] = target: GDP-bound NRAS wild-type protein (Homo sapiens, UniProt P01111); assay: Binding to NRAS by surface plasmon resonance (SPR), Single Cycle Kinetics; conditions: ratio of KD for GDP-bound NRAS wild-type protein to KD for KRAS, SPR
[2] = target: GDP-bound HRAS wild-type protein (Homo sapiens, UniProt P01112); assay: Binding to HRAS by surface plasmon resonance (SPR), Single Cycle Kinetics; conditions: ratio of KD for GDP-bound HRAS wild-type protein to KD for KRAS, SPR
[3] = system: human lung cancer strain NCI-H441; assay: cells; conditions: NCI-H441, 96 h, read-out: NCI-H441 IC50 (nM), NCI-H441 cell proliferation, 4 days, CellTiter-Glo;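 also: cell proliferation inhibition after four days measured by CellTiter-Glo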

Chain of GDP-bound HRAS wild-type protein (P01112 whole entry): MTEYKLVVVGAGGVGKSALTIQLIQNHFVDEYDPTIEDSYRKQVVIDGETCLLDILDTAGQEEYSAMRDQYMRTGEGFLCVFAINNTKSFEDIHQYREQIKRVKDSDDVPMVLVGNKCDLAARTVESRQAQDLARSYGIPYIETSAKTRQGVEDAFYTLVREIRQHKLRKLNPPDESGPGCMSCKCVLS
Chain of GDP-bound NRAS wild-type protein (P01111 whole entry): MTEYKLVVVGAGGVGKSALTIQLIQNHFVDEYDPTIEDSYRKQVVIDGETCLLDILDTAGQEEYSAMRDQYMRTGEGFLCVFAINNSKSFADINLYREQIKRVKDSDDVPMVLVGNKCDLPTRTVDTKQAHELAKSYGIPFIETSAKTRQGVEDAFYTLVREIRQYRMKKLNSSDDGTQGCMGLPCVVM

CC[C@H](C)[C@@H]1NC(=O)[C@H](CC(C)C)N(C)C(=O)C[C@@H](C(=O)N(C)C)N(C)C(=O)[C@H](C2CCCC2)N(C)C(=O)C2(CCC2)NC(=O)[C@@H]2C[C@H](C)CN2C(=O)[C@H](CCc2ccc(C(F)(F)F)c(OC)c2)NC(=O)CN(C)C(=O)[C@H](Cc2ccc(C)cc2)N2CC/C=C\C[C@@H](C2=O)N(C)C(=O)CN(C)C1=O [PP1865]
NRAS/KRAS (KD ratio) [1]: A (a compound having 10 or more and less than 20 is denoted as A)
HRAS/KRAS (KD ratio) [2]: B (a compound having 3 or more and less than 10 is denoted as B)
IC50 [3]: 36 nM

CCC[C@H]1C(=O)N[C@@H]([C@@H](C)CC)C(=O)N(C)CC(=O)N(C)[C@H]2C/C=C\CCN(C2=O)[C@@H](Cc2ccc(C)cc2)C(=O)N(C)CC(=O)N[C@@H](CCc2ccc(C(F)(F)F)c(OC)c2)C(=O)N2C[C@@H](C)C[C@H]2C(=O)NC2(CC(C)(C)C2)C(=O)N(C)[C@@H](C2CCCC2)C(=O)N(C)[C@H](C(=O)N(C)C)CC(=O)N1C [PP1888]
NRAS/KRAS (KD ratio) [1]: A (a compound having 10 or more and less than 20 is denoted as A)
HRAS/KRAS (KD ratio) [2]: B (a compound having 3 or more and less than 10 is denoted as B)
IC50 [3]: 3.5 nM

CCC[C@H]1C(=O)N[C@@H]([C@@H](C)CC)C(=O)N(C)CC(=O)N(C)[C@H]2C/C=C\CCN(C2=O)[C@@H](Cc2ccc(C)cc2)C(=O)N(C)CC(=O)N[C@@H](CCc2ccc(C(F)(F)F)c(OC)c2)C(=O)N2C[C@H](C)C[C@H]2C(=O)NC2(CC(C)(C)C2)C(=O)N(C)[C@@H](C2CCCC2)C(=O)N(C)[C@H](C(=O)N(C)C)CC(=O)N1C [PP1890]
NRAS/KRAS (KD ratio) [1]: A (a compound having 10 or more and less than 20 is denoted as A)
HRAS/KRAS (KD ratio) [2]: B (a compound having 3 or more and less than 10 is denoted as B)
IC50 [3]: 3.6 nM

CCC[C@H]1C(=O)N[C@@H]([C@@H](C)CC)C(=O)N(C)CC(=O)N(C)[C@H]2C/C=C\CCN(C2=O)[C@@H](Cc2ccc(C)cc2)C(=O)N(C)CC(=O)N[C@@H](CCc2ccc(C(F)(F)F)c(Cl)c2)C(=O)N2C[C@H](C)C[C@H]2C(=O)NC2(CC(C)(C)C2)C(=O)N(C)[C@@H](C2CCCC2)C(=O)N(C)[C@H](C(=O)N(C)CC)CC(=O)N1C [PP1894]
NRAS/KRAS (KD ratio) [1]: A (a compound having 10 or more and less than 20 is denoted as A)
HRAS/KRAS (KD ratio) [2]: A (a compound having 10 or more and less than 20 is denoted as A)
IC50 [3]: 15.9 nM

CC[C@H](C)[C@@H]1NC(=O)[C@H](CC2CC2)N(C)C(=O)C[C@@H](C(=O)N(C)CC)N(C)C(=O)[C@H](C2CCCC2)N(C)C(=O)C2(CC(C)(C)C2)NC(=O)[C@@H]2C[C@H](C)CN2C(=O)[C@H](CCc2ccc(C(F)(F)F)c(OC)c2)NC(=O)CN(C)C(=O)[C@H](Cc2ccc(C)cc2)N2CC/C=C\C[C@@H](C2=O)N(C)C(=O)CN(C)C1=O [PP1899]
NRAS/KRAS (KD ratio) [1]: A (a compound having 10 or more and less than 20 is denoted as A)
HRAS/KRAS (KD ratio) [2]: B (a compound having 3 or more and less than 10 is denoted as B)
IC50 [3]: 15.1 nM

CC[C@H](C)[C@@H]1NC(=O)[C@H](CC2CC2)N(C)C(=O)C[C@@H](C(=O)N(C)C)N(C)C(=O)[C@H](C2CCCC2)N(C)C(=O)C2(CC(C)(C)C2)NC(=O)[C@@H]2C[C@@H](C)CN2C(=O)[C@H](CCc2ccc(C(F)(F)F)c(OC)c2)NC(=O)CN(C)C(=O)[C@H](Cc2ccc(C)cc2)N2CC/C=C\C[C@@H](C2=O)N(C)C(=O)CN(C)C1=O [PP1901]
NRAS/KRAS (KD ratio) [1]: A (a compound having 10 or more and less than 20 is denoted as A)
HRAS/KRAS (KD ratio) [2]: B (a compound having 3 or more and less than 10 is denoted as B)
IC50 [3]: 7.6 nM

CC[C@H](C)[C@@H]1NC(=O)[C@H](CC2CC2)N(C)C(=O)C[C@@H](C(=O)N(C)CC)N(C)C(=O)[C@H](C2CCCC2)N(C)C(=O)C2(CC(C)(C)C2)NC(=O)[C@@H]2C[C@@H](C)CN2C(=O)[C@H](CCc2ccc(C(F)(F)F)c(OC)c2)NC(=O)CN(C)C(=O)[C@H](Cc2ccc(C)cc2)N2CC/C=C\C[C@@H](C2=O)N(C)C(=O)CN(C)C1=O [PP1902]
NRAS/KRAS (KD ratio) [1]: A (a compound having 10 or more and less than 20 is denoted as A)
HRAS/KRAS (KD ratio) [2]: A (a compound having 10 or more and less than 20 is denoted as A)
IC50 [3]: 12.5 nM

CCO[C@@H]1C[C@H]2C(=O)NC3(CC(C)(C)C3)C(=O)N(C)[C@@H](C3CCCC3)C(=O)N(C)[C@H](C(=O)N(C)C)CC(=O)N(C)[C@@H](CC3CC3)C(=O)N[C@@H]([C@@H](C)CC)C(=O)N(C)CC(=O)N(C)[C@H]3C/C=C\CCN(C3=O)[C@@H](Cc3ccc(C)cc3)C(=O)N(C)CC(=O)N[C@@H](CCc3ccc(C(F)(F)F)c(OC)c3)C(=O)N2C1 [PP1903]
NRAS/KRAS (KD ratio) [1]: A (a compound having 10 or more and less than 20 is denoted as A)
HRAS/KRAS (KD ratio) [2]: B (a compound having 3 or more and less than 10 is denoted as B)
IC50 [3]: 5.5 nM

CCO[C@@H]1C[C@H]2C(=O)NC3(CCC3)C(=O)N(C)[C@@H](C3CCCC3)C(=O)N(C)[C@H](C(=O)N(C)CC)CC(=O)N(C)[C@@H](CC(C)C)C(=O)N[C@@H]([C@@H](C)CC)C(=O)N(C)CC(=O)N(C)[C@H]3C/C=C\CCN(C3=O)[C@@H](Cc3ccc(C)cc3)C(=O)N(C)CC(=O)N[C@@H](CCc3ccc(C(F)(F)F)c(OC)c3)C(=O)N2C1 [PP1910]
NRAS/KRAS (KD ratio) [1]: A (a compound having 10 or more and less than 20 is denoted as A)
HRAS/KRAS (KD ratio) [2]: B (a compound having 3 or more and less than 10 is denoted as B)
IC50 [3]: 9.7 nM

CCO[C@@H]1C[C@H]2C(=O)NC(C)(C)C(=O)N(C)[C@@H](C3CCCC3)C(=O)N(C)[C@H](C(=O)N(C)CC)CC(=O)N(C)[C@@H](CC(C)C)C(=O)N[C@@H]([C@@H](C)CC)C(=O)N(C)CC(=O)N(C)[C@H]3C/C=C\CCN(C3=O)[C@@H](Cc3ccc(C(F)(F)F)cc3)C(=O)N(C)CC(=O)N[C@@H](CCc3cc(F)c(C(F)(F)F)c(F)c3)C(=O)N2C1 [PP1937]
NRAS/KRAS (KD ratio) [1]: A (a compound having 10 or more and less than 20 is denoted as A)
HRAS/KRAS (KD ratio) [2]: A (a compound having 10 or more and less than 20 is denoted as A)
IC50 [3]: 6.8 nM

CCCN(C)C(=O)[C@@H]1CC(=O)N(C)[C@@H](CC(C)C)C(=O)N[C@@H]([C@@H](C)CC)C(=O)N(C)CC(=O)N(C)[C@H]2C/C=C\CCN(C2=O)[C@@H](Cc2ccc(C(F)(F)F)cc2)C(=O)N(C)CC(=O)N[C@@H](CCc2cc(F)c(C(F)(F)F)c(F)c2)C(=O)N2C[C@H](OCC)C[C@H]2C(=O)NC2(COC2)C(=O)N(C)[C@@H](C2CCCC2)C(=O)N1C [PP1938]
NRAS/KRAS (KD ratio) [1]: AA (a compound having 20 or more is denoted as AA)
HRAS/KRAS (KD ratio) [2]: A (a compound having 10 or more and less than 20 is denoted as A)
IC50 [3]: 34.6 nM

CC[C@H](C)[C@@H]1NC(=O)[C@H](C2CC2)N(C)C(=O)C[C@@H](C(=O)N(C)CC)N(C)C(=O)[C@H](C2CCCC2)N(C)C(=O)C2(CC(C)(C)C2)NC(=O)[C@@H]2C[C@H](C)CN2C(=O)[C@H](CCc2cc(F)c(C(F)(F)F)c(F)c2)NC(=O)CN(C)C(=O)[C@H](Cc2ccc(C(F)(F)F)cc2)N2CC/C=C\C[C@@H](C2=O)N(C)C(=O)CN(C)C1=O [PP1980]
NRAS/KRAS (KD ratio) [1]: A (a compound having 10 or more and less than 20 is denoted as A)
HRAS/KRAS (KD ratio) [2]: B (a compound having 3 or more and less than 10 is denoted as B)
IC50 [3]: 30.1 nM

CCCOC[C@H]1C(=O)N[C@@H]([C@@H](C)CC)C(=O)N(C)CC(=O)N(C)[C@H]2C/C=C\CCN(C2=O)[C@@H](Cc2ccc(C(F)(F)F)cc2)C(=O)N(C)CC(=O)N[C@@H](CCc2ccc(C(F)(F)F)c(OC)c2)C(=O)N2C[C@@H](C)C[C@H]2C(=O)NC2(CC(C)(C)C2)C(=O)N(C)[C@@H](C2CCCC2)C(=O)N(C)[C@H](C(=O)N(C)C)CC(=O)N1C [PP1997]
NRAS/KRAS (KD ratio) [1]: A (a compound having 10 or more and less than 20 is denoted as A)
HRAS/KRAS (KD ratio) [2]: B (a compound having 3 or more and less than 10 is denoted as B)
IC50 [3]: 14.2 nM

CCCN(C)C(=O)[C@@H]1CC(=O)N(C)[C@@H](C2CCC2)C(=O)N[C@@H]([C@@H](C)CC)C(=O)N(C)CC(=O)N(C)[C@H]2C/C=C\CCN(C2=O)[C@@H](Cc2ccc(C(F)(F)F)cc2)C(=O)N(C)CC(=O)N[C@@H](CCc2cc(F)c(C(F)(F)F)c(F)c2)C(=O)N2C[C@H](OCC)C[C@H]2C(=O)NC2(CCC2)C(=O)N(C)[C@@H](C2CCCC2)C(=O)N1C [PP1998]
NRAS/KRAS (KD ratio) [1]: A (a compound having 10 or more and less than 20 is denoted as A)
HRAS/KRAS (KD ratio) [2]: B (a compound having 3 or more and less than 10 is denoted as B)
IC50 [3]: 16.1 nM

CCCN(C)C(=O)[C@@H]1CC(=O)N(C)[C@@H](CC(F)F)C(=O)N[C@@H]([C@@H](C)CC)C(=O)N(C)CC(=O)N(C)[C@H]2C/C=C\CCN(C2=O)[C@@H](Cc2ccc(C(F)(F)F)cc2)C(=O)N(C)CC(=O)N[C@@H](CCc2cc(F)c(C(F)(F)F)c(F)c2)C(=O)N2C[C@@H](C)C[C@H]2C(=O)NC2(CCC2)C(=O)N(C)[C@@H](C2CCCC2)C(=O)N1C [PP2000]
NRAS/KRAS (KD ratio) [1]: A (a compound having 10 or more and less than 20 is denoted as A)
HRAS/KRAS (KD ratio) [2]: B (a compound having 3 or more and less than 10 is denoted as B)
IC50 [3]: 17.7 nM
